In ChEMBL document CHEMBL1201862, “PubChem BioAssay data set” (2004):
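Cultured in 96-well plates, cells were exposed to test compound for 48 hours across five concentrations. GI50 = concentration required for 50% inhibition of growth.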 The source made the active and inactive calls. No stated cut-off is given here; in the data, active = GI50 up to about 1.1 µM and inactive = higher.

Experiments:
Test in all cases: NCI anticancer screen, dose series, 48 h
HL-60 = tested on: HL-60
SF-539 = tested on: SF-539
A549 = tested on: A549
UACC-62 = tested on: UACC-62
UO-31 = tested on: UO-31
SNB-19 = tested on: SNB-19
SF-268 = tested on: SF-268
PC-3 = tested on: PC-3
TK-10 = tested on: TK-10
HOP-92 = tested on: HOP-92
CCRF-CEM = tested on: CCRF-CEM
DU-145 = tested on: DU-145
KM12 = tested on: KM12
HCT-116 = tested on: HCT-116
MOLT-4 = tested on: MOLT-4
HCC 2998 = tested on: HCC 2998
SK-MEL-5 = tested on: SK-MEL-5
OVCAR-5 = tested on: OVCAR-5
HOP-62 = tested on: HOP-62
SR = tested on: SR

SMILES | GI50 (HL-60) | GI50 (SF-539) | GI50 (A549) | GI50 (UACC-62) | GI50 (UO-31) | GI50 (SNB-19) | GI50 (SF-268) | GI50 (PC-3) | GI50 (TK-10) | GI50 (HOP-92) | GI50 (CCRF-CEM) | GI50 (DU-145) | GI50 (KM12) | GI50 (HCT-116) | GI50 (MOLT-4) | GI50 (HCC 2998) | GI50 (SK-MEL-5) | GI50 (OVCAR-5) | GI50 (HOP-62) | GI50 (SR)
Cc1nc(N(C(C)C)C(C)C)c(C(C)C)o1 | > 100 µM (inactive) | > 100 µM (inactive) | > 100 µM (inactive) | > 100 µM (inactive) | > 100 µM (inactive) | > 100 µM (inactive) | > 100 µM (inactive) | > 100 µM (inactive) | > 100 µM (inactive) | > 100 µM (inactive) | > 100 µM (inactive) | > 100 µM (inactive) | > 100 µM (inactive) | > 100 µM (inactive) | > 100 µM (inactive) | > 100 µM (inactive) | > 100 µM (inactive) | > 100 µM (inactive) | > 100 µM (inactive) | –
O=C1NC2(CCN(CCCC3(c4ccc(F)cc4)OCCO3)CC2)Oc2ccccc21 | 42.7 µM (inactive) | 42.9 µM (inactive) | > 100 µM (inactive) | > 100 µM (inactive) | 12.7 µM (inactive) | > 100 µM (inactive) | > 100 µM (inactive) | – | > 100 µM (inactive) | 23.7 µM (inactive) | > 100 µM (inactive) | > 100 µM (inactive) | > 100 µM (inactive) | > 100 µM (inactive) | 51.8 µM (inactive) | > 100 µM (inactive) | 69.5 µM (inactive) | > 100 µM (inactive) | > 100 µM (inactive) | 39.7 µM (inactive)
CC1=C(O)C(=O)C2=C(C1=O)[C@@H]([C@@H](C)C/C=C/C(C)(C)O)CC[C@@H]2C | 33.4 µM (inactive) | > 100 µM (inactive) | 53.5 µM (inactive) | 47.4 µM (inactive) | 62.2 µM (inactive) | 83.6 µM (inactive) | 30.7 µM (inactive) | 51.1 µM (inactive) | – | – | 28.8 µM (inactive) | 98.6 µM (inactive) | 31.2 µM (inactive) | 38.1 µM (inactive) | 35.9 µM (inactive) | – | 35.2 µM (inactive) | > 100 µM (inactive) | > 100 µM (inactive) | 35.3 µM (inactive)
O=C1Nc2ccccc2/C1=N/Nc1c(F)c(F)c(F)c(F)c1F | 2.77 µM (inactive) | 48.4 µM (inactive) | > 100 µM (inactive) | > 100 µM (inactive) | 17.1 µM (inactive) | > 100 µM (inactive) | 49.5 µM (inactive) | > 100 µM (inactive) | 22 µM (inactive) | – | 4 µM (inactive) | 67 µM (inactive) | 16.1 µM (inactive) | 47.8 µM (inactive) | 12 µM (inactive) | > 100 µM (inactive) | 58.5 µM (inactive) | > 100 µM (inactive) | > 100 µM (inactive) | 3.48 µM (inactive)
CCOC(=O)[C@H](C)OC(=O)[C@@](C)(NC(=O)c1ccccc1C(=O)OC)[C@@H]1NC=C(C(=O)OC)CS1 | – | – | > 100 µM (inactive) | 76 µM (inactive) | > 100 µM (inactive) | > 100 µM (inactive) | > 100 µM (inactive) | > 100 µM (inactive) | > 100 µM (inactive) | – | 20.3 µM (inactive) | > 100 µM (inactive) | > 100 µM (inactive) | > 100 µM (inactive) | 41.8 µM (inactive) | > 100 µM (inactive) | 74.1 µM (inactive) | > 100 µM (inactive) | > 100 µM (inactive) | 20.4 µM (inactive)
COC(=O)C1=C(O)C(C(=O)OC)[C@]2(O)[C@@H](C(=O)OC)[C@H]1[C@H](C)[C@@H](c1ccccc1)[C@@H]2C(=O)OC (stereo not given in full) | 26.4 µM (inactive) | > 100 µM (inactive) | 56.4 µM (inactive) | 65.5 µM (inactive) | – | > 100 µM (inactive) | 70.8 µM (inactive) | 61.5 µM (inactive) | > 100 µM (inactive) | – | 23.2 µM (inactive) | > 100 µM (inactive) | > 100 µM (inactive) | 60.3 µM (inactive) | 85.9 µM (inactive) | – | 36.2 µM (inactive) | > 100 µM (inactive) | > 100 µM (inactive) | –
CCCCCCCCCCCNC=O | 15.1 µM (inactive) | > 100 µM (inactive) | 51.3 µM (inactive) | 51.2 µM (inactive) | 33.8 µM (inactive) | > 100 µM (inactive) | 49.1 µM (inactive) | 23.9 µM (inactive) | 37.7 µM (inactive) | 54.3 µM (inactive) | 26.5 µM (inactive) | 84.7 µM (inactive) | 45.3 µM (inactive) | 33.6 µM (inactive) | 22.6 µM (inactive) | 24.4 µM (inactive) | 36.9 µM (inactive) | 80.9 µM (inactive) | > 100 µM (inactive) | –
Cc1ccc(-n2c(C)n[nH]c2=O)cc1 | – | > 100 µM (inactive) | > 100 µM (inactive) | > 100 µM (inactive) | > 100 µM (inactive) | > 100 µM (inactive) | > 100 µM (inactive) | > 100 µM (inactive) | > 100 µM (inactive) | > 100 µM (inactive) | > 100 µM (inactive) | > 100 µM (inactive) | > 100 µM (inactive) | > 100 µM (inactive) | > 100 µM (inactive) | > 100 µM (inactive) | > 100 µM (inactive) | > 100 µM (inactive) | > 100 µM (inactive) | > 100 µM (inactive)
Cc1cc(Nc2ccc(NS(C)(=O)=O)cc2)c2c(ccc3[nH]ccc32)n1 | – | – | 33.3 µM (inactive) | 15.7 µM (inactive) | > 100 µM (inactive) | 18.1 µM (inactive) | 7.24 µM (inactive) | 20.4 µM (inactive) | 28.6 µM (inactive) | 19 µM (inactive) | 7.87 µM (inactive) | 18.8 µM (inactive) | 10.8 µM (inactive) | 17.2 µM (inactive) | 2.77 µM (inactive) | – | 15.1 µM (inactive) | 26.2 µM (inactive) | 19.4 µM (inactive) | –
O=C1NC2(CCCCC2)N=C2C(Cl)CCCC12Cl (stereo not given) | > 100 µM (inactive) | > 100 µM (inactive) | 0.0535 µM (active) | > 100 µM (inactive) | > 100 µM (inactive) | > 100 µM (inactive) | > 100 µM (inactive) | > 100 µM (inactive) | > 100 µM (inactive) | – | > 100 µM (inactive) | > 100 µM (inactive) | > 100 µM (inactive) | – | > 100 µM (inactive) | > 100 µM (inactive) | > 100 µM (inactive) | > 100 µM (inactive) | > 100 µM (inactive) | > 100 µM (inactive)
CC12C=CC(C)(C3C(=O)C4C(C(=O)C31)C1(C)C=CC4(C)[S+]1[O-])[S+]2[O-] (stereo not given) | – | 25.4 µM (inactive) | > 100 µM (inactive) | 74 µM (inactive) | > 100 µM (inactive) | 50.6 µM (inactive) | > 100 µM (inactive) | > 100 µM (inactive) | > 100 µM (inactive) | – | – | > 100 µM (inactive) | > 100 µM (inactive) | – | – | > 100 µM (inactive) | 21.9 µM (inactive) | > 100 µM (inactive) | > 100 µM (inactive) | –
OC1(c2ccccc2)CCN(Cc2c[nH]c3ccccc23)CC1 | 48.2 µM (inactive) | 79.3 µM (inactive) | > 100 µM (inactive) | 47.8 µM (inactive) | 31 µM (inactive) | > 100 µM (inactive) | > 100 µM (inactive) | > 100 µM (inactive) | > 100 µM (inactive) | > 100 µM (inactive) | > 100 µM (inactive) | > 100 µM (inactive) | 75.3 µM (inactive) | 40.5 µM (inactive) | 39.2 µM (inactive) | 17.8 µM (inactive) | 36.3 µM (inactive) | > 100 µM (inactive) | > 100 µM (inactive) | –
O=c1c2cc(Br)ccc2oc2ccc(Br)cc12 | > 100 µM (inactive) | > 100 µM (inactive) | > 100 µM (inactive) | > 100 µM (inactive) | > 100 µM (inactive) | > 100 µM (inactive) | > 100 µM (inactive) | > 100 µM (inactive) | > 100 µM (inactive) | > 100 µM (inactive) | > 100 µM (inactive) | 84.1 µM (inactive) | > 100 µM (inactive) | 82.2 µM (inactive) | > 100 µM (inactive) | > 100 µM (inactive) | > 100 µM (inactive) | > 100 µM (inactive) | – | –
NS(=O)(=O)c1ccc(NS(=O)(=O)c2ccc(NC(=O)N(c3ccccc3)c3ccccc3)cc2)cc1 | – | – | > 100 µM (inactive) | 63.4 µM (inactive) | > 100 µM (inactive) | > 100 µM (inactive) | 64.1 µM (inactive) | 51.1 µM (inactive) | 50.4 µM (inactive) | 51.3 µM (inactive) | 2.7 µM (inactive) | 43.3 µM (inactive) | 60.5 µM (inactive) | 82.4 µM (inactive) | 34 µM (inactive) | – | 68.2 µM (inactive) | > 100 µM (inactive) | 52.8 µM (inactive) | –
O=c1ccc2ccc(O)cc2o1 [UMBELLIFERONE] | > 100 µM (inactive) | > 100 µM (inactive) | > 100 µM (inactive) | > 100 µM (inactive) | > 100 µM (inactive) | > 100 µM (inactive) | > 100 µM (inactive) | > 100 µM (inactive) | > 100 µM (inactive) | > 100 µM (inactive) | > 100 µM (inactive) | > 100 µM (inactive) | > 100 µM (inactive) | > 100 µM (inactive) | > 100 µM (inactive) | 88.7 µM (inactive) | > 100 µM (inactive) | > 100 µM (inactive) | > 100 µM (inactive) | –
